Measured values published in patent publication US8518952B2, “6 substituted 2-heterocyclylamino pyrazine compounds as CHK-1 inhibitors” (Pfizer Inc., priority 2008, dated 2013).
Counter-ions that a name gives are not always drawn.

Legend:
[1] = biological target: T1, CHK1 (kinase domain) (Homo sapiens, UniProt O14757); test: CHK1 Ki determination, spectrophotometric coupled (pyruvate kinase/lactate dehydrogenase) assay; format: biochemical; conditions: CHK-1 kinase domain; 150 uM ATP, 125 uM Syntide 2
T1 construct: a solution containing 1 nM of CHK1 (kinase domain)
T1 sequence (O14757 9-265 limits assumed): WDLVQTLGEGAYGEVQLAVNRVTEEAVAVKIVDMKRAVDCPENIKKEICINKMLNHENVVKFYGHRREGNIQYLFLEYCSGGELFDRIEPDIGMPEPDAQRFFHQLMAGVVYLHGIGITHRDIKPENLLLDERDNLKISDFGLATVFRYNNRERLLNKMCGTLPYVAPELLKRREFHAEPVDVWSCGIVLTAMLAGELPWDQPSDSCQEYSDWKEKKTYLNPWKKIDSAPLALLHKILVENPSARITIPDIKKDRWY
Procedure, shortened: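 Ki values, or % inhibition where no Ki was obtained, come from a tight-binding fit that uses active enzyme concentration and the ATP Km. Rates were followed as NADH loss at 340 nm, with ADP production coupled via pyruvate kinase and lactate dehydrogenase. Reactions with ATP (150 uM) and Syntide 2 (125 uM) were started after the CHK1 kinase domain had stood with inhibitor for 15 min.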

[2] = system: Mia Paca-2 cells; test: Histone H3 (Ser10) phosphorylation ELISA, abrogation of camptothecin-induced G2 arrest (CHK-1 cellular assay); format: cell-based; conditions: Homo sapiens, camptothecin 8 hrs, then compound with nocodozole 16 hours
Procedure, shortened: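 HeLa cells, or Mia Paca-2 where marked, were damaged with camptothecin for 8 h, then exposed to compound with nocodazole for 16 h. Mitotic entry was read as phospho-histone H3 (Ser10) by sandwich ELISA, with absorbance at 450 nm. EC50 came from four-parameter sigmoid fitting.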

[3] = Mia Paca-2 cells (entries marked *)
[4] = MIA PaCa-2, Mia Paca-2 cells (entries marked *)

SMILES | Ki [1] [nM] | EC50 [2, 3] [nM] | EC50 [2, 4] [nM]
C[C@@H]1CNC[C@@H]1Nc1cncc(-c2cnc3sccn23)n1 [Example 181, 6-(imidazo[2,1-b][1,3]thiazol-5-yl)-N-[(3R,4R)-4-methylpyrrolidin-3-yl]pyrazin-2-amine] | 7.2 | 26.1 | 
COc1ccn2c(-c3cncc(N[C@H]4CNC[C@H]4C4CC4)n3)cnc2c1 [Example 211, N-[(3R,4R)-4-cyclopropylpyrrolidin-3-yl]-6-(7-methoxyimidazo[1,2-a]pyridin-3-yl)pyrazin-2-amine] | 2.54 |  | 4.59
NC(=O)c1ccn2c(-c3cncc(N[C@@H]4CCCNC4)n3)cnc2c1 [Example 86, 3-{6-[(3R)-piperidin-3-ylamino]pyrazin-2-yl}imidazo[1,2-a]pyridine-7-carboxamide] | 1.68 |  | 295
Clc1cc2c(cn1)ncn2-c1cncc(N[C@@H]2CCCNC2)n1 [Example 255, 6-(6-chloro-1H-imidazo[4,5-c]pyridin-1-yl)-N-[(3R)-piperidin-3-yl]pyrazin-2-amine] | 34.5 | 597 | 
CO[C@@H]1CCNC[C@H]1Nc1cncc(-c2cnc3ccccn23)n1 [Example 260, 6-(imidazo[1,2-a]pyridin-3-yl)-N-[(3R,4R)-4-methoxypiperidin-3-yl]pyrazin-2-amine (HCl salt)] | 233 |  | 549
FC(F)(F)c1ccc2ncc(-c3cncc(NC4CNCCC4(F)F)n3)n2c1 (stereo not drawn) [Example 231, N-(4,4-difluoropiperidin-3-yl)-6-[6-(trifluoromethyl)imidazo[1,2-a]pyridin-3-yl]pyrazin-2-amine] | 28.6 |  | 20000
